How the values were obtained:
Conditions in all cases: mean ± SD, n = 3
[1] = β-carotene bleaching test
Protocol: (§1) All the procedures were previously detailed. The Relative Antioxidant Capacity Index (RACI) was applied to evaluate the sample characterized by the highest activity. Linear regression, assessment of repeatability, calculation of average, relative standard deviation (SD), and Pearson’s correlation coefficient (r) were calculated by using Microsoft Excel 2010 software (Redmond, WA, USA). The results were expressed as the means of three different experiments ± SD.

[2] = DPPH radical scavenging test
Protocol: as §1

[3] = ABTS radical scavenging test
Protocol: as §1

β-Carotene Bleaching Test (IC50) [1] [µg/mL]	DPPH Test (IC50) [2] [µg/mL]	ABTS Test (IC50) [3] [µg/mL]	Structure (SMILES)
0.09 ± 0.04	–	–	CCCOC(=O)c1cc(O)c(O)c(O)c1 [Propyl gallate]
–	5.04 ± 0.81	1.72 ± 0.14	O=C1O[C@H]([C@@H](O)CO)C(O)=C1O [Ascorbic acid]

— publication PMC10001106, “A New Bloody Pulp Selection of Myrobalan (Prunus cerasifera L.): Pomological Traits, Chemical Composition, and Nutraceutical Properties” (Foods, 2023)
